The values that follow are results of earlier work, collected in patent US5212175A, “Benzothiophenyl benzothiophenylalkyl-N-terminal amino hydroxy β-amino acid derivatives” (G. D. Searle & Co., priority 1991, dated 1993).

Molecules are shown by their SMILES. Square brackets hold non-standard residues; d marks the D form. Peptide text beside a SMILES is read from it. * marks the point of attachment. Sta = CC(C)C[C@H](N)[C@@H](O)CC(=O)O; Isovaleryl = CC(C)CC(=O)*

For series [1], the system named is pepsin. Particulars: Umezawa et al, J. Antibiot. 1970.
Series [2] relates to cathepsin D. Particulars: Umezawa et al, J. Antibiot. 1970.
For series [3] the following is noted: stated in words as a disadvantage.
In series [4] the test system is hog renin. The note with it: after the injection of hog renin into nephrectomized rats; Gross et al, Science 1971.
The test system of series [5] is renin. Particulars: Umezawa et al, J. Antibiot. 1970.

`CC(C)CC(=O)N[C@H](C(=O)N[C@H](C(=O)N[C@@H](CC(C)C)[C@@H](O)CC(=O)N[C@@H](C)C(=O)N[C@@H](CC(C)C)[C@@H](O)CC(=O)O)C(C)C)C(C)C` [pepstatin] (Isovaleryl-VV[Sta]A[Sta]-OH): the inhibitor of pepsin result in series [1] is listed as “inhibitor”. Also, the “inhibitor of cathepsin D” value in series [2] was “inhibitor”. For the same molecule, the solubility result in series [3] is “low solubility”. Further, the “reduce blood pressure in vivo” value in series [4] is reported as “reduce blood pressure”. Besides, in series [5], the inhibitor of renin result is given as “inhibitor”.
